The values below come from patent US20120053155A1, “SYSTEM AND METHOD FOR REVERTING ANTIBIOTIC TOLERANCE OF BACTERIAL PERSISTER CELLS” (Syracuse University, priority 2010, published 2012).

Each structure is given as a SMILES string.

Assay [1] deals with P. aeruginosa PAO1 persister cells. In words: Antibiotic (Cip) susceptibility of isolated persister cells. The format is cell-based, Pseudomonas aeruginosa. The settings on record: for reverting antibiotic tolerance of persisters: different concentrations, 0.85% NaCl buffer, Cip. How it is done:
(§1) Pseudomonas aeruginosa PAO1 was routinely grown in Luria-Bertani (LB) medium. To isolate persister cells, an overnight culture was incubated for 18 h at 37° C. with shaking at 200 rpm, washed twice with 0.85% NaCl buffer, resuspended in the same buffer and then treated with 200 μg/mL Cip for 3.5 h to lyse the regular cells. The remaining persister cells were then harvested by centrifugation at 13,200 rpm for 3 min at room temperature and then treated with or without furanones as described below.
(§2) To obtain persisters, 3 mL of overnight culture of P. aeruginosa PAO1 was incubated for 3.5 h with 200 μg/mL Cip to kill all regular cells. The remaining persisters were washed twice with and resuspended in 0.85% NaCl buffer with 1:50 dilution. Samples were taken immediately to count the CFUs of persisters. Then, each 5 mL of 0.85% NaCl buffer containing persister cells was treated for 3.5 h with 0, 0.1, 0.5, 1 and 2 μg/mL of BF8. The amount of ethanol was adjusted to be the same for all samples. CFUs of treated persister cells were counted to understand if BF8 has any effects on the viability of persister cells.
The persister cells treated with BF8 as described above were then treated again with 200 μg/mL Cip to understand if any persister cells restored susceptibility to Cip. The CFUs were counted as described above.

For assay [2] the test system is unchanged. In words: Viability of isolated persister cells (CFU). Type of assay: cell-based, Pseudomonas aeruginosa. The settings on record: up to 2 μg/mL; 0.85% NaCl buffer. How it is done:
as §1, §2

The test system of assay [3] is Vibrio harveyi BB886 quorum sensing based on homoserine lactones. In words: Quorum sensing assay (bioluminescence of reporter strain). The format is cell-based. The settings on record: 10 μg/mL; V. harveyi BB886; bioluminescence at 5 h after inoculation. As to the method:
To understand the effects of BFs on quorum sensing, the reporter strain Vibrio harveyi BB886 was used to monitor the quorum sensing based on homoserine lactones. Briefly, an overnight culture of this strain was diluted by 1:5000 in autoinducer bioassay medium with BFs supplemented at different concentrations. The bioluminescence was measured at 5 h after inoculation.

Assay [4] concerns P. aeruginosa PAO1. The assay is described as follows: Effect on persister formation in subcultures (CFU after Cip treatment). The format is cell-based, Pseudomonas aeruginosa. As to the method:
A P. aerugionsa PAO1 overnight culture was sub-cultured into 6 tubes with 5 mL fresh LB medium in each with the optical density at 600 nm (OD600) adjusted to 0.05. Each tube contained different concentrations of BF8 (0, 5, 10, 30, 50 and 100 μg/mL) diluted from a 60 mg/mL stock solution. The amount of ethanol was adjusted to be the same for all samples to eliminate solvent effects. After 5 h of incubation, 2 mL sample from each tube was washed and plated on LB agar plates for counting colony forming units (“CFU”); while 3 mL of sample was added with 200 μg/mL Cip and incubated for 3.5 h to count the numbers of cells that remained as persisters.
To compare with the effects of sugars known to promote antibiotic uptake by persisters, the above experiment was repeated using 10 mM glucose and mannitol instead of BF8.

For assay [5], the system named is P. aeruginosa PAO1 persister cells. In words: DNA microarray analysis of gene expression in persister cells. The settings on record: 1 μg/mL, 1 h. Type of assay: cell-based, Pseudomonas aeruginosa. As to the method: Persister cells were harvested from a 100 mL 18-h culture of P. aeruginosa PAO1. The isolated persister cells were resuspended in 0.85% NaCl buffer supplemented with 1 μg/mL (3.7 μM) BF8 or with the same amount of ethanol (4.17 μL to eliminate the solvent effect as the control). After incubation at 37° C. for 1 h, cells were collected by centrifugation at 10,000 rpm for 5 minutes at 4° C., transferred to 2 mL pre-cooled microcentrifuge tubes and frozen in an ethanol-dry ice bath. The cell pellets were stored at −80° C. until RNA isolation.
The RNeasy Mini Kit (Qiagen) was used to isolate total RNA. First, the cells were lysed by beating at 4,800 oscillations/min using a mini-bead beater (Biospec Products Inc., Bartlesville, Okla.) with 0.5-mm glass beads, 900 uL RLT buffer and 1% 2-Mercaptoethanol. The total RNA was extracted following the manufacture's protocol with additional wash with RW1 buffer, RPE buffer and DNase treatment (RNase-Free DNase Set, Qiagen). The RNA samples were sent to the DNA microarray Facilities at SUNY Upstate Medical University for microarray hybridization.

As to `CC1=CC(=C(Br)Br)OC1=O` [BF9], the “reverting antibiotic tolerance of persisters” value in assay [1] was “revert antibiotic tolerance in a dose dependent manner”.
The same measure, in the same setting: next, `CC1=C(Br)C(C(Br)Br)OC1=O` (centres unmarked) [BF14]: “revert antibiotic tolerance in a dose dependent manner”; `O=C1OC(=C(Br)Br)C=C1CBr` [BF11]: “revert antibiotic tolerance in a dose dependent manner”.
`CC1=C(Br)/C(=C/Br)OC1=O` [BF8]: the “persister cells rendered sensitive to Cip” value in assay [1] (2 μg/mL, then 200 μg/mL Cip) was “around 90%”. Besides, in assay [1] (0.5, 1 and 2 μg/mL, then 200 μg/mL Cip), the “susceptibility of persisters to Cip” value is given as “more susceptible to Cip”. Besides, in assay [2], the “killing effects on persister cells (viability)” value was “did not exhibit any significant killing effects”. Further, the “response of the reporter strain to homoserine lactones” value in assay [3] is reported as “completely eliminated”. For the same molecule, the “cells persistent (retaining antibiotic tolerance) after treatment” value in assay [4] (100 μg/mL BF8, 5 h incubation, 200 μg/mL Cip) is given as 1.6%. In assay [4] (100 μg/mL, 5 h incubation in LB medium, 200 μg/mL Cip 3.5 h), the “reduction of the number of persister cells formed compared to the furanone-free control” value was “up to 100 times”. Further, in assay [5] (gene PA0182 (3-ketoacyl-(acyl-carrier-protein) reductase)), the “Expression Ratio PA0182” value is reported as 97.1. In addition, the “Expression Ratio PA0422” value in assay [5] (gene PA0422 (hypothetical protein)) is recorded as 4.2. For the same molecule, in assay [5] (gene PA0565 (hypothetical protein)), the “Expression Ratio PA0565” value was 12.8. Further, the “Expression Ratio PA0741” value in assay [5] (gene PA0741 (hypothetical protein)) is on record as 16.5. Also, the “Expression Ratio PA1127” value in assay [5] (gene PA1127 (oxidoreductase)) turned out to be 3.4. In addition, the “Expression Ratio PA1210” value in assay [5] (gene PA1210 (hypothetical protein)) came to 21. The “Expression Ratio PA1285” value in assay [5] (gene PA1285 (transcriptional regulator)) is 4.4. Moreover, the “Expression Ratio PA1334” value in assay [5] (gene PA1334 (oxidoreductase)) is 227.6. For the same molecule, the “Expression Ratio PA1374” value in assay [5] (gene PA1374 (hypothetical protein)) is listed as 3.4. Besides, the “Expression Ratio PA1470” value in assay [5] (gene PA1470 (short chain dehydrogenase)) was determined as 4.1. Further, the “Expression Ratio PA2196” value in assay [5] (gene PA2196 (transcriptional regulator)) worked out at 4.8. Besides, the “Expression Ratio PA2378” value in assay [5] (gene PA2378 (aldehyde dehydrogenase)) was determined as 3.1. Also, the “Expression Ratio PA2535” value in assay [5] (gene PA2535 (oxidoreductase)) is recorded as 9. Besides, the “Expression Ratio PA2575” value in assay [5] (gene PA2575 (hypothetical protein)) worked out at 9.1. Also, in assay [5] (gene PA2580 (hypothetical protein)), the “Expression Ratio PA2580” value is reported as 8.3. Further, the “Expression Ratio PA2610” value in assay [5] (gene PA2610 (hypothetical protein)) is recorded as 7.2. Further, in assay [5] (gene PA2691 (hypothetical protein)), the “Expression Ratio PA2691” value was found to be 3.7. Also, in assay [5] (gene PA2839 (hypothetical protein)), the “Expression Ratio PA2839” value stood at 11. Also, the “Expression Ratio PA2931” value in assay [5] (gene PA2931 (CifR)) turned out to be 11. Moreover, the “Expression Ratio PA2932_morB” value in assay [5] (gene PA2932_morB (morphinone reductase)) worked out at 64.9. Further, in assay [5] (gene PA3133 (transcriptional regulator)), the “Expression Ratio PA3133” value stood at 3.5. Moreover, the “Expression Ratio PA3223_acpD” value in assay [5] (gene PA3223_acpD (AzoR3, azoreductase 3)) stood at 4.8. Further, the “Expression Ratio PA3240” value in assay [5] (gene PA3240 (hypothetical protein)) is given as 14.4. In assay [5] (gene PA3523 (RND efflux membrane fusion protein precursor)), the “Expression Ratio PA3523” value stood at 9.6. Further, the “Expression Ratio PA3920” value in assay [5] (gene PA3920 (metal transporting P-type ATPase)) amounted to 3.9. In addition, in assay [5] (gene PA4167 (2,5-diketo-D-gluconate reductase B)), the “Expression Ratio PA4167” value is given as 510.6. Also, the “Expression Ratio PA4173” value in assay [5] (gene PA4173 (hypothetical protein)) is reported as 36.7. Besides, in assay [5] (gene PA4878 (transcriptional regulator)), the “Expression Ratio PA4878” value amounted to 4.2.
For the molecule `O=C1OC(=C(Br)Br)C=C1C(Br)Br` [BF10], in assay [1], the “reverting antibiotic tolerance of persisters” value is “revert antibiotic tolerance in a dose dependent manner”.
